Assay results reported in patent US5834431A, “Des-Arg^9 -BK antagonists” (Cortech, Inc., priority 1995, dated 1998).
Square brackets hold non-standard residues; d marks the D form. Peptide text beside a SMILES is read from it. * marks the point of attachment. Oic = O=C(O)[C@@H]1C[C@@H]2CCCC[C@@H]2N1; X1 = N=C(N)NCCC[C@@H](NC(=N)N)C(=O)*; dIgl = N[C@@H](C(=O)O)C1Cc2ccccc2C1; Gly(cPent) = N[C@H](C(=O)O)C1CCCC1; Igl = N[C@H](C(=O)O)C1Cc2ccccc2C1; Hyp = O=C(O)[C@@H]1C[C@@H](O)CN1; Tic = O=C(O)[C@@H]1Cc2ccccc2CN1; dTic = O=C(O)[C@H]1Cc2ccccc2CN1; 2Thi = N[C@@H](Cc1cccs1)C(=O)O

Tests used:
B1 receptor = biological target: T1, B1 receptor (Homo sapiens, UniProt P46663); assay: Human B1 binding, IL-1b-treated IMR-90 membranes, 3H-des-Arg9-Kallidin; conditions: 0.5 nM 3H-des-Arg9-Kallidin, pIC50 = -log of molar IC50
T1 construct: Human lung fibroblasts IMR-90 cells were obtained from ATCC and propagated in DMEM media; host or cells: IMR-90 human lung fibroblasts, treated with interleukin 1b three hours before harvest; membranes
T1 sequence (P46663 1-353): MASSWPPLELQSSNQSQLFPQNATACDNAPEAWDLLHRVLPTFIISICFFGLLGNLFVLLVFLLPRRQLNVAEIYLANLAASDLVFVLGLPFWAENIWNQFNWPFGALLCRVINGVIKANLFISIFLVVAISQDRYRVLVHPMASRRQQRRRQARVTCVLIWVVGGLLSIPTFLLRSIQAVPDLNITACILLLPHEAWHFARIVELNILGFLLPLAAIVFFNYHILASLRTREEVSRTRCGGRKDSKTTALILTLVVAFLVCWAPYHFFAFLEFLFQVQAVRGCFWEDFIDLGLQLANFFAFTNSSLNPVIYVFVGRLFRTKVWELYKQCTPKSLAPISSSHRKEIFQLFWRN
Description: (§1) Human lung fibroblasts IMR-90 cells were obtained from ATCC and propagated in DMEM media in […] roller bottles until confluent. Three hours prior to harvesting, the cells were treated with Interleukin lb (200 pg/ml). Human BK2 clones were propagated in F12 media until confluent. Preparation of membranes for binding assays was carried out by scraping cells from roller bottles in ice cold PBS and centrifuging at 1000 ×g, at 4° C. for 15 minutes. The supernatant was discarded and pellet resuspended in Buffer A consisting of 25 mM TES(pH 6.8) with 2 uM 1,10-Phenanthroline, and centrifuged at 27,000 ×g for 15 min. this was then repeated. The final pellet was resuspended in Buffer B (Buffer A with 2 uM Captopril, 140 ug/Ml Bacitracin, 0.1%BSA), and stored in 1 ml aliquots, frozen at -20° C. until needed.
(§2) Binding assays were performed by incubating human clone membranes with 0.3 nM ^3 H-Bradykinin or IMR-90 membranes with 0.5 nM ^3 H-des-Arg^9 -Kallidin in the presence of the peptides in assay buffer (Buffer B with 1 mM Dithiotreitol), at room temperature, for 45 minutes. All test compound dilutions were in triplicate. Assays were harvested by quick filtration in a Tomtec Harvester 96, with ice cold wash buffer consisting of 10 mM Tris/HCl, pH 7.5, 100 mM NaCl, 0.02%BSA, onto Wallec printed glassfiber Filtermat "B", which had been pre-soaked with 0.1% PEI and previously air-dried.

B2 receptor [1] = biological target: T2, B2 receptor (Cavia porcellus, UniProt O70526); assay: GPI binding B2; conditions: i.a. = inactive; for IC50: read-out: GPI Binding - pIC50 B2 (converted)
T2 construct: from tissue
T2 sequence (O70526 1-372): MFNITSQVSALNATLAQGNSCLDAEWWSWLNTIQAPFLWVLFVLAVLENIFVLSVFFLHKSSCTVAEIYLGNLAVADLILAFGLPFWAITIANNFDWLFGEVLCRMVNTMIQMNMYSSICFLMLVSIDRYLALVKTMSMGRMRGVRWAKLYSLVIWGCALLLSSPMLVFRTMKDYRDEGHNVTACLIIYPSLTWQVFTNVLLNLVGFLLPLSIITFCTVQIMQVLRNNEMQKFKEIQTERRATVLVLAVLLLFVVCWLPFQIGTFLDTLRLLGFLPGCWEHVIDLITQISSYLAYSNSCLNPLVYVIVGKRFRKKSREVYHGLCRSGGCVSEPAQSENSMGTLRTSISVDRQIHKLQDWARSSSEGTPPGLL

B2 receptor [2] = biological target: T3, B2 receptor (Homo sapiens, UniProt P30411); assay: Human B2 binding, human BK2 clone membranes, 3H-Bradykinin; conditions: 0.3 nM 3H-Bradykinin, i.a. = inactive; for IC50: read-out: Human Binding - pIC50 B2 (converted)
T3 construct: expressed in transfected cells
T3 sequence (P30411 1-391): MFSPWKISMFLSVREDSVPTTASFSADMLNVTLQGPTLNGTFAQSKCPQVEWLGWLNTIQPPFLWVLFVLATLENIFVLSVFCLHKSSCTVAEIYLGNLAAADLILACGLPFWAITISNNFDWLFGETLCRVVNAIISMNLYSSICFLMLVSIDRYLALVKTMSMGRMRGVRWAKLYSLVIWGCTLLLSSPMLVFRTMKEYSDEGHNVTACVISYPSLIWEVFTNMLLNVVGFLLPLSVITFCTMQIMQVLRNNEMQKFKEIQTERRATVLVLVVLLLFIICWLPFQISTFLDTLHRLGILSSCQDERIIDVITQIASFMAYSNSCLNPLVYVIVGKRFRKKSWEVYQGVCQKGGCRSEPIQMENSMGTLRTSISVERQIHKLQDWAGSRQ
Description: as §1
as §2, with “air-dried. Filtermats were counted in 9.5 mls Wallec Beta-Plate Scint, in Wallec 1450 MicroBeta Counter.” for “air-dried.”

[3] = biological target: T4, BK1 (hypotensive response to desArg9BK) (Canis lupus familiaris, UniProt Q9BDQ5); assay: In vivo inhibition of hypotensive response to desArg9BK in anaesthetized dogs; parameters: species or system Mongrel dogs; conditions: dog, infusion; dose of antagonist to inhibit hypotensive response to desArg9BK by 50%
T4 construct: Mongrel dogs of either sex, weight range 10-15 kg were used; from tissue; host or cells: whole anaesthetized mongrel dog (in vivo blood pressure)
T4 sequence (Q9BDQ5 1-350): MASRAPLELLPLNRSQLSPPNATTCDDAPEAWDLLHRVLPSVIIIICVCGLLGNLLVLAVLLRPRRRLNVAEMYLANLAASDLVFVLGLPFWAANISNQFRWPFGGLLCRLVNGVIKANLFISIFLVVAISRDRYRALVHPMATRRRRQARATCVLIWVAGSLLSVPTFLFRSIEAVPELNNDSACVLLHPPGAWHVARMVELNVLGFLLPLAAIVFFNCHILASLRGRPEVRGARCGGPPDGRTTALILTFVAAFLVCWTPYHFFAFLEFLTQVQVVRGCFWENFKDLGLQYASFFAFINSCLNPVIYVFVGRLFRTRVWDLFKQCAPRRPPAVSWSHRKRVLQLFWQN
Description: Mongrel dogs of either sex, weight range 10-15 kg were used. These were anaesthesized with pentobarbitone, 30 mg/kg i.v. and catheters placed in one femoral artery and both femoral veins for the recording of blood pressure and infusion and injection of compounds. […] After the end of the infusion of the highest dose of the antagonist compound, BK and des-Arg^9 -BK were injected at intervals for up to four hours.

Row | SMILES | IC50 (B1 receptor) [nM] | IC50 (B2 receptor [1]) [nM] | IC50 (B2 receptor [2]) [nM] | GPI Binding - pIC50 B2 (B2 receptor [1]) | Human Binding - pIC50 B2 (B2 receptor [2]) | BK1 ED50 [3] [µg/kg/min]
1 | CC(C)C[C@H](NC(=O)[C@H](NC(=O)[C@H](CO)NC(=O)[C@@H](NC(=O)CNC(=O)[C@@H]1C[C@@H](O)CN1C(=O)[C@@H]1CCCN1C(=O)[C@H](CCCNC(=N)N)NC(=O)[C@H](N)CCCNC(=N)N)C1Cc2ccccc2C1)C1Cc2ccccc2C1)C(=O)O [B9816, DArg-Arg-Pro-Hyp-Gly-Igl-Ser-DIgl-Leu] (H-[dR]RP[Hyp]G[Igl]S[dIgl]L-OH) | 1.26 | 2000 | 631 |  |  | 
2 | N=C(N)NCCC[C@H](NC(=O)[C@@H](CCCNC(=N)N)NC(=N)N)C(=O)N1CCC[C@H]1C(=O)N1C[C@H](O)C[C@H]1C(=O)NCC(=O)N[C@@H](Cc1cccs1)C(=O)N[C@@H](CO)C(=O)N[C@@H](C(=O)N1[C@H](C(=O)O)C[C@@H]2CCCC[C@@H]21)C1Cc2ccccc2C1 [B9826, Gun- DArg-Arg-Pro-Hyp-Gly-Thi-Ser-DIgl-Oic] (X1-RP[Hyp]G[2Thi]S[dIgl][Oic]-OH) | 0.126 | 79.4 | 7.94 |  |  | 
3 | CC(C)C[C@H](NC(=O)[C@H](NC(=O)[C@H](CO)NC(=O)[C@@H](NC(=O)CNC(=O)[C@@H]1C[C@@H](O)CN1C(=O)[C@@H]1CCCN1C(=O)[C@@H](N)CCCNC(=N)N)C1Cc2ccccc2C1)C1Cc2ccccc2C1)C(=O)O [B9814, Arg-Pro-Hyp-Gly-Igl-Ser-DIgl-Leu] (H-RP[Hyp]G[Igl]S[dIgl]L-OH) | 6.31 |  |  | i.a | i.a | 
4 | N=C(N)NCCC[C@H](NC(=O)[C@H](CCCCN)NC(=O)[C@@H](N)CCCCN)C(=O)N1CCC[C@H]1C(=O)N1C[C@H](O)C[C@H]1C(=O)NCC(=O)N[C@H](C(=O)N[C@@H](CO)C(=O)N[C@@H](C(=O)N1[C@H](C(=O)O)C[C@@H]2CCCC[C@@H]21)C1Cc2ccccc2C1)C1Cc2ccccc2C1 [B9858, Lys- Lys-Arg-Pro-Hyp-Gly-Igl-Ser-DIgl-Oic] |  | 126 | 20 |  |  | 0.03 ± 0.01
5 | CC(C)C[C@H](NC(=O)[C@@H]1CCCN1C(=O)[C@H](CO)NC(=O)[C@H](Cc1ccccc1)NC(=O)CNC(=O)[C@@H]1CCCN1C(=O)[C@@H]1CCCN1C(=O)[C@H](CCCNC(=N)N)NC(=O)[C@H](CCCCN)NC(=O)CNC(=N)N)C(=O)O [B9810] |  |  |  | i.a | i.a | 
6 | N=C(N)NCCC[C@@H](N)C(=O)N[C@@H](CCCNC(=N)N)C(=O)N1CCC[C@H]1C(=O)N1C[C@H](O)C[C@H]1C(=O)NCC(=O)N[C@H](C(=O)N[C@@H](CO)C(=O)N1Cc2ccccc2C[C@@H]1C(=O)N[C@H](C(=O)O)C1CCCC1)C1Cc2ccccc2C1 [B9840, DArg-Arg-Pro-Hyp-Gly-Igl-Ser-DTic-Cpg] (H-[dR]RP[Hyp]G[Igl]S[dTic][Gly(cPent)]-OH) | 0.794 |  | 631 | i.a |  | 
7 | N=C(N)NCCC[C@@H](N)C(=O)N[C@@H](CCCNC(=N)N)C(=O)N1CCC[C@H]1C(=O)N1C[C@H](O)C[C@H]1C(=O)NCC(=O)N[C@H](C(=O)N[C@@H](CO)C(=O)N1Cc2ccccc2C[C@H]1C(=O)N[C@H](C(=O)O)C1CCCC1)C1CCCC1 [B9004, DArg-Arg-Pro-Hyp-Gly-Cpg-Ser-Tic-Cpg] (H-[dR]RP[Hyp]G[Gly(cPent)]S[Tic][Gly(cPent)]-OH) | 3.16 | 6310 | 1580 |  |  | 
8 | N=C(N)NCCC[C@@H](N)C(=O)N[C@@H](CCCNC(=N)N)C(=O)N1CCC[C@H]1C(=O)N1C[C@H](O)C[C@H]1C(=O)NCC(=O)N[C@@H](Cc1cccs1)C(=O)N[C@@H](CO)C(=O)N1Cc2ccccc2C[C@H]1C(=O)N[C@H](C(=O)O)C1CCCC1 [B9006, DArg-Arg-Pro-Hyp-Gly-Thi-Ser-Tic-Cpg] (H-[dR]RP[Hyp]G[2Thi]S[Tic][Gly(cPent)]-OH) | 12.6 | 10000 | 631 |  |  | 
9 | N=C(N)NCCC[C@H](NC(=O)[C@@H](N)CCCCN)C(=O)N1CCC[C@H]1C(=O)N1C[C@H](O)C[C@H]1C(=O)NCC(=O)N[C@H](C(=O)N[C@@H](CO)C(=O)N1Cc2ccccc2C[C@@H]1C(=O)N[C@H](C(=O)O)C1CCCC1)C1Cc2ccccc2C1 [B9842, Lys-Arg-Pro-Hyp-Gly-Igl-Ser-DTic-Cpg] (H-KRP[Hyp]G[Igl]S[dTic][Gly(cPent)]-OH) | 0.251 |  | 631 | i.a. |  | 
10 | N=C(N)NCCC[C@@H](N)C(=O)N[C@@H](CCCNC(=N)N)C(=O)N1CCC[C@H]1C(=O)N1C[C@H](O)C[C@H]1C(=O)NCC(=O)N[C@@H](Cc1cccs1)C(=O)N[C@@H](CO)C(=O)N1Cc2ccccc2C[C@@H]1C(=O)N[C@H](C(=O)O)C1CCCC1 [B9068, DArg-Arg-Pro-Hyp-Gly-Thi-Ser-DTic-Cpg] (H-[dR]RP[Hyp]G[2Thi]S[dTic][Gly(cPent)]-OH) | 1.58 | 7940 | 2000 |  |  | 
